The values below come from ChEMBL document CHEMBL2202954, “The effect of PLC-γ2 inhibitors on the growth of human tumour cells” (2012).

Each structure is given as a SMILES string.

For this assay, the system named is NCI-H522. The experiment in a line: Cytotoxicity against human NCI-H522 cells by SRB assay. Format: functional.
`Nc1c(C(=O)Nc2ccccc2F)sc2nc3c(cc12)C(=O)CCC3`: halving of growth (GI50) required 440 nM and the TGI is 3310 nM.
The like results for `Nc1c(C(=O)Nc2cccc(Cl)c2)sc2nc3c(cc12)C(=O)CCC3` were, in that order, 190 nM and 788 nM.
For the compound `Cc1cc(C)c(NC(=O)c2sc3nc4c(cc3c2N)C(=O)CCC4)c(C)c1`, halving of growth (GI50) required 360 nM and net growth stopped (TGI) at 2010 nM.
`Cc1ccccc1NC(=O)c1sc2nc3c(cc2c1N)C(=O)CCC3` came in with a GI50 of 895 nM and a TGI of 3500 nM.
In turn, `Nc1c(C(=O)Nc2ccccc2)sc2nc3c(cc12)C(=O)CCC3` returned a GI50 of 150 nM, an LC50 of 68000 nM and a TGI of 402 nM.
Take `Cc1ccc(Cl)cc1NC(=O)c1sc2nc3c(cc2c1N)C(=O)CCC3`: growth was halved (GI50) at 2170 nM and total growth inhibition (TGI) required 4950 nM.
